Here are results for nine compounds from US20240148821A1, “PHARMACEUTICAL USE OF CYCLIC PEPTIDE COMPOUND” (CHUGAI SEIYAKU KABUSHIKI KAISHA, priority 2021, published 2024).

pIC50: −log10 of the molar value. Numbered stars: 1 amine (or outer) side, 2 acyl side, 3 side chain; on linkers, the order of the positions; unused ones are H or OH. Bridge positions count the residues as written; N and C are the ends. Square brackets hold non-standard residues; d marks the D form. Peptide text beside a SMILES is read from it. * marks the point of attachment. hPhe(3,5-F2-4-CF3) = N[C@@H](CCc1cc(F)c(C(F)(F)F)c(F)c1)C(=O)O; hPhe(3-Cl-4-CF3) = N[C@@H](CCc1ccc(C(F)(F)F)c(Cl)c1)C(=O)O; hPhe(3-F,4-CF3) = N[C@@H](CCc1ccc(C(F)(F)F)c(F)c1)C(=O)O; NEtPhe(4-Me) = CCN[C@@H](Cc1ccc(C)cc1)C(=O)O; NMePhe(3-Me) = CN[C@@H](Cc1cccc(C)c1)C(=O)O; NMePhe(4-Me) = CN[C@@H](Cc1ccc(C)cc1)C(=O)O; X59 = Cc1ccc(Br)cc1C[C@H](N[*:1])C(=O)[*:2]; NMedβ3hAla = C[C@H](CC(=O)[*:2])N(C)[*:1]; NMeGly(cPent) = CN[C@H](C(=O)O)C1CCCC1; NMeY = CN[C@@H](Cc1ccc(O)cc1)C(=O)O; NMeCha = CN[C@@H](CC1CCCCC1)C(=O)O; NMeGly(cPr) = CN[C@H](C(=O)O)C1CC1; NMehLeu = CN[C@@H](CCC(C)C)C(=O)O; NMeF = CN[C@@H](Cc1ccccc1)C(=O)O; NMeI = CC[C@H](C)[C@H](NC)C(=O)O; NMeD = CN[C@@H](CC(=O)O)C(=O)O; NMeL = CN[C@@H](CC(C)C)C(=O)O; NMeV = CN[C@H](C(=O)O)C(C)C; d(β3hA) = C[C@@H](N)CC(=O)O; NMeAbu = CC[C@H](NC)C(=O)O; NMeA = CN[C@@H](C)C(=O)O; NMeAib = CNC(C)(C)C(=O)O; Nle = CCCC[C@H](N)C(=O)O; Piperidide = C1CCN(*)CC1; dNMeA = CN[C@H](C)C(=O)O; Ac5c = NC1(C(=O)O)CCCC1; Aze = O=C(O)[C@@H]1CCN1; Sar = CNCC(=O)O A value given as a limit tells only on which side of the number the result lay.

The subject of this assay is Human pancreatic cancer cell line AsPC-1 (G12D mutation Kras). Briefly: AsPC-1 cell growth inhibition (AsPC-1 CGI). It is filed as cell-based. Particulars: read-out: AsPC-1 cell growth inhibition, 50% growth inhibitory concentration (IC50 value); 96 hours, CellTiter-Glo, values classified in ranges. (In general: ATP-based viability assays read luminescence as a measure of living cells.)
Procedure: Test compounds were serially dilated with dimethyl sulfoxide, and 200 nL was then dispensed to a U-bottom 96-well plate using Labcyte Echo. […] The cell suspension was dispensed to a. plate containing a test compound at 100 μL per well and incubated at 37° C. in a 5% carbon dioxide gas incubator. 96 hours later, 80 μL of CellTiter-Glo (Promega) was added to each well and fluorescence was measured.
Regarding `CC[C@H](C)[C@@H]1NC(=O)[C@H](CC(C)C)N(C)C(=O)C[C@@H](C(=O)N2CCCCC2)NC(=O)[C@H](CC(C)C)N(C)C(=O)C2(CCCC2)NC(=O)[C@@H]2CCCN2C(=O)[C@H](CCc2ccc(C(F)(F)F)c(F)c2)NC(=O)CN(C)C(=O)[C@H](CC2CCCCC2)N(C)C(=O)CN(C)C(=O)CN(C)C1=O` [Compound 298] ([NMeL]I[Sar][Sar][NMeCha][Sar][hPhe(3-F,4-CF3)]P[Ac5c][NMeL]D-Piperidide; lactam N-11), the pIC50 is < 6.30. In the case of `CC[C@H](C)[C@@H]1NC(=O)[C@H](CC(C)C)N(C)C(=O)C[C@@H](C(=O)N(C)C)N(C)C(=O)[C@H]([C@@H](C)CC)N(C)C(=O)C2(CCCC2)NC(=O)[C@@H]2CCCN2C(=O)[C@H](CCc2cc(F)c(C(F)(F)F)c(F)c2)NC(=O)CN(C)C(=O)[C@H](Cc2ccc(C)cc2)N(CC)C(=O)[C@@H]2CCN2C(=O)[C@H](C)N(C)C1=O` [Compound 571] ([NMeL]I[NMeA][Aze][NEtPhe(4-Me)][Sar][hPhe(3,5-F2-4-CF3)]P[Ac5c][NMeI][NMeD]-NMe2; lactam N-11), the pIC50 was ≥ 7.70. As for `CC[C@H](C)[C@@H]1NC(=O)[C@H](C)N(C)C(=O)C[C@@H](C)NC(=O)[C@H](C2CCCC2)N(C)C(=O)C2(CCCC2)NC(=O)[C@@H]2CCCN2C(=O)[C@H](CCc2ccc(C(F)(F)F)c(Cl)c2)NC(=O)[C@@H](C)N(C)C(=O)[C@H](Cc2cccc(C)c2)N(C)C(=O)[C@@H]2CCN2C(=O)[C@H](C)N(C)C1=O` [Compound 117] (cyclo([Ac5c][NMeGly(cPent)][d(β3hA)][NMeA]I[NMeA][Aze][NMePhe(3-Me)][dNMeA][hPhe(3-Cl-4-CF3)]P)), the pIC50 is < 6.30.

`CC[C@H](C)[C@@H]1NC(=O)[C@H](CC(C)C)N(C)C(=O)C[C@@H](C(=O)N(C)C)N(C)C(=O)[C@H](C2CCCC2)N(C)C(=O)C2(CCCC2)NC(=O)[C@@H]2CCCN2C(=O)[C@H](CCc2ccc(C(F)(F)F)c(Cl)c2)NC(=O)CN(C)C(=O)[C@H](Cc2ccc(C)cc2)N(C)C(=O)[C@@H]2CCN2C(=O)[C@H](C)N(C)C1=O` [Compound 1756] ([NMeL]I[NMeA][Aze][NMePhe(4-Me)][Sar][hPhe(3-Cl-4-CF3)]P[Ac5c][NMeGly(cPent)][NMeD]-NMe2; lactam N-11): the pIC50 was ≥ 7.70. With `CC[C@H](C)[C@@H]1NC(=O)[C@H](CC(C)C)N(C)C(=O)C[C@@H](C)NC(=O)[C@H](C2CC2)N(C)C(=O)C2(CCCC2)NC(=O)[C@@H]2CCCN2C(=O)[C@H](CCc2ccc(C(F)(F)F)c(Cl)c2)NC(=O)CN(C)C(=O)[C@H](CC2CCCCC2)N(C)C(=O)CN(C)C(=O)CN(C)C1=O` [Compound 14] (cyclo([Ac5c][NMeGly(cPr)][d(β3hA)][NMeL]I[Sar][Sar][NMeCha][Sar][hPhe(3-Cl-4-CF3)]P)) the figure was < 6.30; with `CC[C@H](C)[C@@H]1NC(=O)[C@H](CC(C)C)N(C)C(=O)C[C@@H](C)N(C)C(=O)[C@H](CCC(C)C)N(C)C(=O)C2(CCCC2)NC(=O)[C@@H]2CCCN2C(=O)[C@H](CCc2ccc(C(F)(F)F)c(Cl)c2)NC(=O)CN(C)C(=O)[C@H](CC2CCCCC2)N(C)C(=O)CN(C)C(=O)CN(C)C1=O` [Compound 22] (cyclo([Ac5c][NMehLeu][NMedβ3hAla][NMeL]I[Sar][Sar][NMeCha][Sar][hPhe(3-Cl-4-CF3)]P)), < 6.30. On to `CC[C@H](C)[C@@H]1NC(=O)[C@H](CC(C)C)N(C)C(=O)C[C@@H](C(=O)N(C)C)N(C)C(=O)[C@H](C2CCCC2)N(C)C(=O)C2(CCCC2)NC(=O)[C@@H]2CCCN2C(=O)[C@H](CCc2ccc(C(F)(F)F)c(Cl)c2)NC(=O)CN(C)C(=O)[C@H](Cc2ccc(C)cc2)N(C)C(=O)CN(C)C(=O)CN(C)C1=O` [Compound 1779] ([NMeL]I[Sar][Sar][NMePhe(4-Me)][Sar][hPhe(3-Cl-4-CF3)]P[Ac5c][NMeGly(cPent)][NMeD]-NMe2; lactam N-11), for which the pIC50 is ≥ 7.70. With `CCCC[C@@H]1NC(=O)[C@H](Cc2cc(Br)ccc2C)NC(=O)CN(C)C(=O)[C@H](Cc2ccc(OC)cc2)N(C)C(=O)[C@@H]2CCN2C(=O)[C@H](C)N(C)C(=O)[C@H]([C@@H](C)CC)NC(=O)[C@H](CC)N(C)C(=O)C[C@@H](C(=O)N2CCCCC2)N(C)C(=O)[C@H](CC(C)C)NC(=O)C(C)(C)N(C)C1=O` [Compound 1195] ([NMeAbu]I[NMeA][Aze][NMeY](Me)[Sar][X59][Nle][NMeAib]L[NMeD]-Piperidide; lactam N-11), the pIC50 was < 6.30. In the case of `CC[C@H](C)[C@@H]1NC(=O)[C@H](C)N(C)C(=O)C[C@@H](C(=O)N2CCCCC2)N(C)C(=O)[C@H](C(C)C)N(C)C(=O)C2(CCCC2)NC(=O)[C@@H]2CCCN2C(=O)[C@H](CCc2ccc(C(F)(F)F)c(Cl)c2)NC(=O)[C@@H](C)N(C)C(=O)[C@H](Cc2ccccc2)N(C)C(=O)CN(C)C(=O)CN(C)C1=O` [Compound 1844] ([NMeA]I[Sar][Sar][NMeF][dNMeA][hPhe(3-Cl-4-CF3)]P[Ac5c][NMeV][NMeD]-Piperidide; lactam N-11), the pIC50 is < 6.30.
